According to US7098307B2, “Neo-tryptophan” (Mayo Foundation for Medical Education and Research, priority 1998, dated 2006):
Like-named read-outs stand apart in the source and are kept apart here. Numbered stars: 1 amine (or outer) side, 2 acyl side, 3 side chain; on linkers, the order of the positions; unused ones are H or OH. Square brackets hold non-standard residues; d marks the D form. Ends that are not written are not given here. Peptide text beside a SMILES is read from it. Ala(indol-4-yl) = N[C@@H](Cc1cccc2[nH]ccc12)C(=O)O; X1 = O=C([C@@H](Cc1cccc2[nH]ccc12)N[*:1])[*:2]; NMeR = CN[C@@H](CCCNC(=N)N)C(=O)O; Tle = CC(C)(C)[C@H](N)C(=O)O; dOrn = NCCC[C@@H](N)C(=O)O; Dab = NCC[C@H](N)C(=O)O

Assays:
5HT2A receptor = 5HT2A receptor (Homo sapiens, UniProt P28223); experiment: Competitive binding with [3H]ketanserin, human brain tissue; settings: for competition with labeled ketanserin for binding at the 5HT2A receptor: human brain tissue
[1] = Degradation in human plasma (HPLC peak area); type: in vitro ADME; settings: for half-life at 0.5 mg/mL: human
Excerpt: (§1) For the degradation studies, data were plotted in linear form as a semi-log plot with SigmaPlot for Windows Version 4.00. Linear regression on these plots provided the parameters used to calculate the half-time (t1/2) for degradation of each polypeptide. The correlation coefficient (R) for the linear regression was taken as a measure of the goodness-of-fit.

[2] = Body temperature (hypothermia) in rats; settings: for Peak BT change / time of Peak BT change: rats; for induction of hypothermia: intraperitoneal administration (NT64L 1 mg/kg); for peak body temperature reduction: 18 nmol injected into the PAG, at 30 minutes
human NTR1 = target: T1, human NTR1 (Homo sapiens, UniProt P30989); experiment: Competition binding with [3H]NT, membranes of CHO-K1 cells transfected with human NTR1
T1 construct: expressed in transfected cells; host or cells: CHO-K1
Method: (§2) CHO-K1 cells were stably transfected with nucleic acid encoding either the human NTR1 or the rat NTR1, and cultured in 150 mm petri plates with 35 mL of Dulbecco-modified Eagle's medium containing 100 μM minimal essential medium nonessential amino acids (GIBCO) supplemented with 5% (v/v) FetalClone II bovine serum product (Hyclone Labs, Logan, Utah). CHO cells (subculture 9–19) were harvested at confluency. Briefly, the medium from each plate was removed by aspiration, and the cells washed with 6 mL of 50 mM Tris-HCl (pH 7.4) and resuspended in 5–10 mL of Tris-HCl by scraping the cells with a rubber spatula. The resuspended cells were placed into a centrifuge tube and collected by centrifugation at 300× g for five minutes at 4° C. in a GPR centrifuge (Beckman Instruments, Fullerton, Calif.). The cellular pellet (in 50 mM Tris-HCl, 1 mM EDTA, pH 7.4) was stored at […] until radioligand binding was performed.
(§3) The supernatant was decanted and discarded, and the cellular pellet was resuspended in 2 mL of Tris-HCl, 1 mM EDTA (pH 7.4) followed by homogenization with a Brinkmann Polytron at setting 6 for ten seconds. Centrifugation was repeated as above and the supernatant was decanted and discarded. The resulting final cellular pellet was resuspended in 50 mM Tris-HCl, lmM EDTA, 0.1% bovine serum albumin, and 0.2 mM bacitracin.
(§4) Incubation was at 20° C. for 30 minutes. Each reaction was terminated by addition of cold 0.9% NaCl (5×1.5 mL) followed by rapid filtration through a GF/B filter strip that had been pretreated with 0.2% polyethylenimine.

rat NTR1 = target: T2, rat NTR1 (Rattus norvegicus, UniProt P20789); experiment: Competition binding with [3H]NT, membranes of CHO-K1 cells transfected with rat NTR1
T2 construct: expressed in transfected cells; host or cells: CHO-K1
Method: as §2, §3, §4

[3] = Hot plate test (antinociception, % MPE) in rats; settings: for Peak % MPE / time of Peak % MPE: rats; for induction of antinociception (hot plate): intraperitoneal administration (NT64L 1 mg/kg); for peak % MPE value: 18 nmol injected into the PAG, at 30 minutes
[4] = Degradation in rat intestinal preparation; type: in vitro ADME; settings: pH 7.4, 37° C., read-out: half-time, Rat Intestinal Preparation (converted)
Method: For intestinal preparations, rats were sacrificed by decapitation, and the small intestines removed. The tissue was washed with ice-cold PBS (10 mM, pH 7.4). About […] of intestinal tissue was added to about 10 mL of PBS and homogenized using a Brinkman polytron homogenizer (setting 6). After homogenization, 10 mL of PBS was added to 10 mL of the intestinal homogenate. […] The supernatant was removed and stored at −20° C. until testing. Immediately before incubation with the polypeptide, the intestinal preparation was filtered through a 0.2 μm filter. Testing procedures were similar to those for the plasma tests.
as §1

[5] = Catalepsy bar test in rats; type: in vivo, rat
Method: The following experiments were performed to assess the ability of NT69L to cause and influence catalepsy. Male Sprague-Dawley rats (150–250 g) or CD-1 mice (24–26 g) were housed in a temperature-controlled room in groups of five with free access to food and water. The animals were kept on a 12 hour light/dark cycle, and all tests were performed during the light cycle. […] Thirty minutes after injection, the animals were tested for catalepsy. For rats, the test involved simply placing the animal's fore paws on a suspended metal bar 10 mm in diameter, 11 cm above the counter. The time elapsed until the animal's fore paws touch the counter was recorded. […] The cut-off time was 20 seconds, and each animal was tested three times for each time point.

[6] = Degradation in rat plasma (HPLC peak area); type: in vitro ADME
Excerpt: as §1

[7] = 25% plasma, 37° C., 0.5 mg/mL polypeptide, read-out: half-time, Plasma Human (converted)
[8] = CHO cells, read-out: Kd hNTR (Table VII)
[9] = 0.5 mg/kg intraperitoneal (footnote)

CC[C@H](C)[C@H](NC(=O)[C@H](Cc1ccc(O)cc1)NC(=O)[C@@H]1CCCN1C(=O)[C@H](CCCNC(=N)N)NC(=O)[C@H](N)CCCCN)C(=O)N[C@@H](CC(C)C)C(=O)O [NT2, reference compound] (H-[dK]RPYIL-OH; N-terminus and C-terminus assumed)
competition with labeled ketanserin for binding at the 5HT2A receptor (5HT2A receptor): found to compete | half-time, Plasma Human [1]: about 0.85 hours | half-life at 0.5 mg/mL ([1]; plasma): 0.85 h

CC[C@H](C)[C@H](NC(=O)[C@H](Cc1cccc2[nH]ccc12)NC(=O)[C@@H]1CCCN1C(=O)[C@H](N)CCCCN)C(=O)N[C@@H](CC(C)C)C(=O)O [NT73] (H-[dK]P[Ala(indol-4-yl)]IL-OH; N-terminus and C-terminus assumed)
Peak BT change ([2]; 5 mg/kg intraperitoneal): −0.9 @ ° C. | time of Peak BT change ([2]; 5 mg/kg intraperitoneal): 90 min | induction of hypothermia [2]: did induce | Kd (human NTR1): 45 ± 3 nM | half-life at 0.5 mg/mL [1, 7]: 300 h | Kd (rat NTR1): 32 ± 6 nM | Peak % MPE ([3]; 5 mg/kg intraperitoneal): 40% @ | time of Peak % MPE ([3]; 5 mg/kg intraperitoneal): 120 min | induction of antinociception (hot plate) [3]: did induce | half-life [4]: 0.83 h

CC[C@H](C)[C@H](NC(=O)[C@H](Cc1cccc2[nH]ccc12)NC(=O)[C@@H]1CCCN1C(=O)[C@H](CCCNC(=N)N)NC(=O)[C@@H](N)CCCNC(=N)N)C(=O)N[C@@H](CC(C)C)C(=O)O [NT64L]
Kd (5HT2A receptor): 6600 nM | competition with labeled ketanserin for binding at the 5HT2A receptor (5HT2A receptor): found to compete | peak body temperature reduction [2]: 2.1 °C | induction of hypothermia [2]: did not induce | half-life at 0.5 mg/mL [1, 7]: 1.4 h | peak % MPE value [3]: 76% | induction of antinociception (hot plate) [3]: did not induce

N[C@@H](Cc1cccc2[nH]ccc12)C(=O)O [L-neo-Trp, (2S)-2-amino-3-(1H-4-indolyl)propanoic acid]
Kd (5HT2A receptor): > 100000 nM | competition with labeled ketanserin for binding at the 5HT2A receptor (5HT2A receptor): did not compete | binding to human NT receptors from CHO cells (human NTR1): does not bind | Kd (human NTR1; [8]): > 100000 nM

CN1CCN(C2=Nc3cc(Cl)ccc3Nc3ccccc32)CC1 [Clozapine, reference compound]
Kd (human NTR1; [8]): > 100000 nM | catalepsy ([5]; 20 mg/kg ip): did not cause catalepsy

CC(C)C[C@H](NC(=O)[C@@H](NC(=O)[C@H](Cc1cccc2[nH]ccc12)NC(=O)[C@@H]1CCCN1C(=O)[C@H](CCCNC(=N)N)NC(=O)[C@@H](N)CCCNC(=N)N)C(C)(C)C)C(=O)O [NT65L] (H-RRP[Ala(indol-4-yl)][Tle]L-OH; N-terminus and C-terminus assumed)
reduction in binding affinity compared to NT64L (human NTR1; NT receptor binding): 3 fold | half-life at 0.5 mg/mL ([1]; plasma): 1.1 h

CC(C)C[C@H](NC(=O)[C@@H](NC(=O)[C@H](Cc1cccc2[nH]ccc12)NC(=O)[C@@H]1CCCN1C(=O)[C@@H](N)CCN)C(C)(C)C)C(=O)O [NT74] (H-[Dab]P[Ala(indol-4-yl)][Tle]L-OH; N-terminus and C-terminus assumed)
half-life at 0.5 mg/mL ([6]; plasma): 110 h

CN[C@@H](CCCNC(=N)N)C(=O)N[C@@H](CCN)C(=O)N1CCC[C@H]1C(=O)N[C@@H](Cc1cccc2[nH]ccc12)C(=O)N[C@H](C(=O)N[C@@H](CC(C)C)C(=O)O)C(C)(C)C [NT71] (H-[NMeR][Dab]P[Ala(indol-4-yl)][Tle]L-OH; N-terminus and C-terminus assumed)
half-life at 0.5 mg/mL ([6]; 25% plasma, 37° C., 0.5 mg/mL polypeptide, read-out: half-time, Plasma Rat (converted)): 260 h | Peak BT change ([2]; 1 mg/kg intraperitoneal): −2.0 @ ° C. | time of Peak BT change ([2]; 1 mg/kg intraperitoneal): 40 min | Peak BT change ([2]; 5 mg/kg intraperitoneal): −2.4 @ ° C. | time of Peak BT change ([2]; 5 mg/kg intraperitoneal): 90 min | induction of hypothermia [2]: did induce | Peak % MPE ([3]; 1 mg/kg intraperitoneal): 70% @ | time of Peak % MPE ([3]; 1 mg/kg intraperitoneal): 60 min | Peak % MPE ([3]; 5 mg/kg intraperitoneal): 79% @ | time of Peak % MPE ([3]; 5 mg/kg intraperitoneal): 180 min | induction of antinociception (hot plate) [3]: did induce | half-life [4]: 5.1 h

CC[C@H](C)[C@H](NC(=O)[C@H](Cc1cccc2[nH]ccc12)NC(=O)[C@@H]1CCCN1C(=O)[C@@H](N)CCN)C(=O)N[C@@H](CC(C)C)C(=O)O [NT75] (H-[Dab]P[Ala(indol-4-yl)]IL-OH; N-terminus and C-terminus assumed)
half-life at 0.5 mg/mL ([6]; plasma): 1.6 h | half-life [4]: 0.27 h

NCCc1c[nH]c2ccc(O)cc12 [Serotonin, reference compound]
Kd (human NTR1; [8]): > 100000 nM | Kd (rat NTR1; CHO cells, read-out: Kd rNTR (Table VII)): > 100000 nM

CC(C)C[C@H](NC(=O)[C@@H](NC(=O)[C@H](Cc1cccc2[nH]ccc12)NC(=O)[C@@H]1CCCN1C(=O)[C@H](N)CCCCN)C(C)(C)C)C(=O)O [NT72] (H-[dK]P[Ala(indol-4-yl)][Tle]L-OH; N-terminus and C-terminus assumed)
Peak BT change ([2]; 5 mg/kg intraperitoneal): −2.8 @ ° C. | time of Peak BT change ([2]; 5 mg/kg intraperitoneal): 180 min | induction of hypothermia [2]: did induce | Kd (human NTR1): 640 nM | half-life at 0.5 mg/mL [1, 7]: 3000 h | Kd (rat NTR1): 270 ± 30 nM | Peak % MPE ([3]; 5 mg/kg intraperitoneal): 100% @ | time of Peak % MPE ([3]; 5 mg/kg intraperitoneal): 120 min | induction of antinociception (hot plate) [3]: did induce | half-life [4]: 54 h

NT24″27″: L-Arg-D-Orn-L-Pro-L-Tyr-L-Ile-L-Leu (R[dOrn]PYIL) [reference compound]
peak body temperature reduction [2]: 1.1 °C | induction of hypothermia [2]: did not induce | peak % MPE value [3]: 20% | induction of antinociception (hot plate) [3]: did not induce

O=C(CCCN1CCC(O)(c2ccc(Cl)cc2)CC1)c1ccc(F)cc1 [Haloperidol, reference compound]
catalepsy ([5]; 1 mg/kg ip): profound catalepsy | ED50 at 30 min ([5]; male, Sprague-Dawley, rat, in vivo, ip, at 30 minutes, read-out: ED50 haloperidol-induced catalepsy): 0.13 mg/kg | ED50 at 60 min ([5]; male, Sprague-Dawley, rat, in vivo, ip, at 60 minutes, read-out: ED50 haloperidol-induced catalepsy): 0.26 mg/kg | ED50 at 180 min ([5]; male, Sprague-Dawley, rat, in vivo, ip, at 180 minutes, read-out: ED50 haloperidol-induced catalepsy): 0.31 mg/kg

CC(C)C[C@H](NC(=O)[C@@H](NC(=O)[C@@H](Cc1cccc2[nH]ccc12)NC(=O)[C@@H]1CCCN1C(=O)[C@H](CCCNC(=N)N)NC(=O)[C@H](N)CCCCN)C(C)(C)C)C(=O)O [NT66D] (H-[dK]RP[X1][Tle]L-OH; N-terminus and C-terminus assumed)
Peak BT change [2, 9]: −1.0 @ ° C. | time of Peak BT change [2, 9]: 30 min | induction of hypothermia [2]: did induce | Kd (human NTR1): 210 ± 20 nM | Kd (rat NTR1): 77 ± 9 nM | Peak % MPE [3, 9]: 58% @ | time of Peak % MPE [3, 9]: 30 min | induction of antinociception (hot plate) [3]: did induce
